Measurements from ChEMBL document CHEMBL4270560, “Novel curcumin analogue hybrids: Synthesis and anticancer activity” (Eur J Med Chem, 2018).
pIC50: −log10 of the molar value.

Assays:
SGC-7901 [1] = assay: Induction of apoptosis in human SGC7901 cells assessed as viable cells at 1200 nM after 48 hrs by Annexin V-FITC/propidium iodide staining based flow cytometric analysis (reference value: 95.9 to 96%); assay type: functional; details: SGC-7901, 48 h, read-out: Activity
SGC-7901 [2] = assay: Induction of mitochondrial membrane depolarization in human SGC7901 cells assessed as cells with mitochondrial membrane potential loss at 800 nM after 48 hrs by JC-1 staining based flow cytometric analysis (reference value: 9.29%); assay type: functional
SGC-7901 [3] = assay: Cell cycle arrest in human SGC7901 cells assessed as accumulation at G1 phase at 800 nM after 48 hrs by propidium iodide staining based flow cytometric analysis (reference value: 47.93%); assay type: functional
SGC-7901 [4] = assay: Induction of apoptosis in human SGC7901 cells assessed as decrease in cyclin D1 level after 48 hrs by Western blot analysis; assay type: functional, cell-based
SGC-7901 [5] = assay: Induction of apoptosis in human SGC7901 cells assessed as late apoptotic cells at 600 nM after 48 hrs by Annexin V-FITC/propidium iodide staining based flow cytometric analysis (reference value: 1.73%); assay type: functional
SGC-7901 [6] = assay: Cell cycle arrest in human SGC7901 cells assessed as accumulation at G2 phase at 600 nM after 48 hrs by propidium iodide staining based flow cytometric analysis (reference value: 18.77%); assay type: functional
SGC-7901 [7] = assay: Induction of mitochondrial membrane potential loss in human SGC7901 cells after 48 hrs by JC-1 staining based flow cytometric analysis; assay type: functional, cell-based
SGC-7901 [8] = assay: Induction of apoptosis in human SGC7901 cells assessed as viable cells at 600 nM after 48 hrs by Annexin V-FITC/propidium iodide staining based flow cytometric analysis (reference value: 95.9%); assay type: functional; details: SGC-7901, 48 h, read-out: Activity
SGC-7901 [9] = assay: Cell cycle arrest in human SGC7901 cells assessed as accumulation at G1 phase at 600 nM after 48 hrs by propidium iodide staining based flow cytometric analysis (reference value: 47.93%); assay type: functional
SGC-7901 [10] = assay: Cell cycle arrest in human SGC7901 cells assessed as accumulation at G1 phase after 48 hrs by propidium iodide staining based flow cytometric analysis; assay type: functional
SGC-7901 [11] = assay: Cell cycle arrest in human SGC7901 cells assessed as accumulation at G2 phase at 1000 nM after 48 hrs by propidium iodide staining based flow cytometric analysis (reference value: 18.77%); assay type: functional
SGC-7901 [12] = assay: Induction of mitochondrial membrane depolarization in human SGC7901 cells assessed as cells with mitochondrial membrane potential loss at 1200 nM after 48 hrs in presence of NAC by JC-1 staining based flow cytometric analysis (reference value: 1.65%); assay type: functional
SGC-7901 [13] = assay: Induction of apoptosis in human SGC7901 cells assessed as necrotic cells at 600 nM after 48 hrs by Annexin V-FITC/propidium iodide staining based flow cytometric analysis (reference value: 0.052%); assay type: functional
SGC-7901 [14] = assay: Cell cycle arrest in human SGC7901 cells assessed as accumulation at S phase at 1200 nM after 48 hrs by propidium iodide staining based flow cytometric analysis (reference value: 33.30%); assay type: functional
SGC-7901 [15] = assay: Induction of apoptosis in human SGC7901 cells assessed as early apoptotic cells at 1000 nM after 48 hrs in presence of NAC by Annexin V-FITC/propidium iodide staining based flow cytometric analysis (reference value: 0.851%); assay type: functional
SMMC-7721 = assay: Antiproliferative activity against human SMMC7721 cells after 48 hrs by MTT assay; assay type: functional, cell-based; details: SMMC-7721, 48 h
[16] = molecular target: T1, Thioredoxin reductase 1, cytoplasmic (Homo sapiens) (UniProt Q16881); assay: (§1) Inhibition of TrxR in human SGC7901 cells; assay type: cell-based
T1 sequence (whole entry): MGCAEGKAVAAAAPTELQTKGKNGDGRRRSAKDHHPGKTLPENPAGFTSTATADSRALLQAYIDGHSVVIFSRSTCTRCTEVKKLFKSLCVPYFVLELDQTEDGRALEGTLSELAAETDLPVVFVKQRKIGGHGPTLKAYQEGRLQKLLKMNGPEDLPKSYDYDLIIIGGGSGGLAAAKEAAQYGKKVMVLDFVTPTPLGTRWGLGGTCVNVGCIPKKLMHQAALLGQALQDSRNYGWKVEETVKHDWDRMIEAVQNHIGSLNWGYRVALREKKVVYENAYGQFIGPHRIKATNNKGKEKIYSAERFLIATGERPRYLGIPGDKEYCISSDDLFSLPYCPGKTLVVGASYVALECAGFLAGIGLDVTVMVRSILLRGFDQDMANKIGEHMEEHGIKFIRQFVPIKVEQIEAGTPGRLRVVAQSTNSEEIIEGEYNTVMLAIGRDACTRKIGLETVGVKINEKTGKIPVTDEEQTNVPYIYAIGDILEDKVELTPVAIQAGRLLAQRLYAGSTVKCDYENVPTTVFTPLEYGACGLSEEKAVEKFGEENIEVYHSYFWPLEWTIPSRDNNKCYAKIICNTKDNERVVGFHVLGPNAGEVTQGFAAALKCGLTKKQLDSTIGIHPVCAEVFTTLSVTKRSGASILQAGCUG

[17] = molecular target: T2, Thioredoxin reductase 1, cytoplasmic (Homo sapiens, UniProt Q16881); assay: as §1; assay type: cell-based
T2 sequence (Q16881 whole entry): T1 sequence (whole entry)

SGC-7901 [18] = assay: Induction of apoptosis in human SGC7901 cells assessed as late apoptotic cells at 1000 nM after 48 hrs in presence of NAC by Annexin V-FITC/propidium iodide staining based flow cytometric analysis (reference value: 2.85%); assay type: functional
SGC-7901 [19] = assay: Induction of mitochondrial membrane depolarization in human SGC7901 cells assessed as cells with intact mitochondrial membrane potential at 1000 nM after 48 hrs by JC-1 staining based flow cytometric analysis (reference value: 87.3%); assay type: functional
SGC-7901 [20] = assay: Induction of apoptosis in human SGC7901 cells assessed as early apoptotic cells at 1200 nM after 48 hrs in presence of NAC by Annexin V-FITC/propidium iodide staining based flow cytometric analysis (reference value: 0.851%); assay type: functional
SGC-7901 [21] = assay: Cell cycle arrest in human SGC7901 cells assessed as accumulation at S phase at 800 nM after 48 hrs by propidium iodide staining based flow cytometric analysis (reference value: 33.30%); assay type: functional
SGC-7901 [22] = assay: Cell cycle arrest in human SGC7901 cells assessed as accumulation at G2 phase at 1200 nM after 48 hrs by propidium iodide staining based flow cytometric analysis (reference value: 18.77%); assay type: functional
SGC-7901 [23] = assay: Induction of mitochondrial membrane depolarization in human SGC7901 cells assessed as cells with mitochondrial membrane potential loss at 1200 nM after 48 hrs by JC-1 staining based flow cytometric analysis (reference value: 1.65 to 9.29%); assay type: functional
SGC-7901 [24] = assay: Induction of apoptosis in human SGC7901 cells assessed as early apoptotic cells at 600 nM after 48 hrs by Annexin V-FITC/propidium iodide staining based flow cytometric analysis (reference value: 2.30%); assay type: functional
SGC-7901 [25] = assay: Cell cycle arrest in human SGC7901 cells assessed as accumulation at G1 phase at 1000 nM after 48 hrs by propidium iodide staining based flow cytometric analysis (reference value: 47.93%); assay type: functional
SGC-7901 [26] = assay: Induction of apoptosis in human SGC7901 cells assessed as late apoptotic cells at 1200 nM after 48 hrs in presence of NAC by Annexin V-FITC/propidium iodide staining based flow cytometric analysis (reference value: 2.85%); assay type: functional

How did the viability at 1.2 µM (SGC-7901 [1]) turn out when COc1cc(OC)c2c(=O)c(OCCCOc3ccccc3/C=C/C(=O)/C=C/c3ccccn3)c(-c3cc(OC)c(OC)c(OC)c3)oc2c1 was run?
Its viability at 1.2 µM is 24.6 to 43.7%.

And the Activity (SGC-7901 [2])?
The Activity was 21.2%.

What about the Activity (SGC-7901 [3]) of the same molecule?
Its Activity is 51.29%.

What about the Activity (SGC-7901 [4]) of the same molecule?
Its Activity is “Dose-dependent effect”.

What about the Activity (SGC-7901 [5]) of the same molecule?
Its Activity is 6.4%.

What about the Activity (SGC-7901 [6]) of the same molecule?
The Activity was 15.61%.

And the Activity (SGC-7901 [7])?
The Activity was “Dose-dependent effect”.

And the viability at 0.6 µM (SGC-7901 [8])?
The viability at 0.6 µM was 87.7%.

And the Activity (SGC-7901 [9])?
The Activity was 48.92%.

What about the Activity (SGC-7901 [10]) of the same molecule?
Its Activity is “Dose-dependent effect”.

And the Activity (SGC-7901 [11])?
The Activity was 10.44%.

What about the Activity (SGC-7901 [12]) of the same molecule?
Its Activity is 1.74%.

And the Activity (SGC-7901 [13])?
The Activity was 0.132%.

And the Activity (SGC-7901 [14])?
Its Activity is 36.26%.

What about the Activity (SGC-7901 [15]) of the same molecule?
Its Activity is 2.13%.

What about the pIC50 (SMMC-7721) of the same molecule?
Its pIC50 is 5.50.

What about the inhibition [16] of the same molecule?
Its inhibition is “Dose-dependent effect”.

And the pIC50 [17]?
Its pIC50 is 6.11.

And the Activity (SGC-7901 [18])?
Its Activity is 2.84%.

What about the Activity (SGC-7901 [19]) of the same molecule?
Its Activity is 56.3%.

And the Activity (SGC-7901 [20])?
The Activity was 4.46%.

What about the Activity (SGC-7901 [21]) of the same molecule?
Its Activity is 35.37%.

And the Activity (SGC-7901 [22])?
The Activity was 17.95%.

And the Activity (SGC-7901 [23])?
Its Activity is 55.4 - 63.7%.

And the Activity (SGC-7901 [24])?
Its Activity is 5.79%.

And the Activity (SGC-7901 [25])?
Its Activity is 55.28%.

What about the Activity (SGC-7901 [26]) of the same molecule?
Its Activity is 21.2%.
